Laboratory results published in ChEMBL document CHEMBL1144576, “Synthesis and antitumour evaluation of peptidyl-like derivatives containing the 1,3-benzodioxole system” (Eur J Med Chem, 2007).

What was measured:
Lytechinus variegatus [1] = test: Antimitotic effect in Lytechinus variegatus at first cleavage stage at 100 ug/mL; format: functional
MDA-MB-435 = test: Cytotoxicity against MDA-MB-435 cells; format: functional, cell-based; conditions: Homo sapiens
SF-295 = test: Cytotoxicity against SF295 cells; format: functional, cell-based; conditions: Homo sapiens
Lytechinus variegatus [2] = test: Antimitotic effect in Lytechinus variegatus at blastulae stage at 100 ug/mL; format: functional, Blastula stage
Lytechinus variegatus [3] = test: Antimitotic effect in Lytechinus variegatus at third cleavage stage at 100 ug/mL; format: functional
Lytechinus variegatus [4] = test: Antimitotic effect in Lytechinus variegatus at third cleavage stage at 10 ug/mL; format: functional
Lytechinus variegatus [5] = test: Antimitotic effect in Lytechinus variegatus at blastulae stage at 10 ug/mL; format: functional, Blastula stage
HCT-8 = test: Cytotoxicity against HCT8 cells; format: functional, cell-based; conditions: Homo sapiens
Lytechinus variegatus [6] = test: Antimitotic effect in Lytechinus variegatus at first cleavage stage at 10 ug/mL; format: functional
HL-60 = test: Cytotoxicity against HL60 cells; format: functional, cell-based; conditions: Homo sapiens

In the case of `C=CCc1ccc2c(c1)OCO2` [SAFROLE], the Activity (Lytechinus variegatus [1]) is reported as 0.7%, the IC50 (MDA-MB-435) is reported as 105 µM and the IC50 (SF-295) is reported as 32.6 µM. The Activity (Lytechinus variegatus [2]) was 0.3%, the Activity (Lytechinus variegatus [3]) was 0% and the Activity (Lytechinus variegatus [4]) was 33.7%. For the same molecule, the Activity (Lytechinus variegatus [5]) was 31.7%, the IC50 (HCT-8) was 36.1 µM and the Activity (Lytechinus variegatus [6]) was 59.5%. For the same molecule, the IC50 (HL-60) was 104 µM.
Work on `CC(C)C[C@H](NC(=O)Cc1cc2c(cc1[N+](=O)[O-])OCO2)C(N)=O` yielded an Activity (Lytechinus variegatus [1]) of 94.3%, an IC50 (MDA-MB-435) greater than 50 µM and an IC50 (SF-295) of 19.1 µM. It also gave an Activity (Lytechinus variegatus [2]) of 89%, an Activity (Lytechinus variegatus [3]) of 72.7% and an Activity (Lytechinus variegatus [4]) of 77%. For the same molecule, the Activity (Lytechinus variegatus [5]) was 80.3%, the IC50 (HCT-8) was greater than 50 µM and the Activity (Lytechinus variegatus [6]) was 88.3%. For the same molecule, the IC50 (HL-60) was greater than 50 µM.
`C[C@H](NC(=O)Cc1ccc2c(c1)OCO2)C(N)=O` showed an Activity (Lytechinus variegatus [1]) of 76.5%, an IC50 (MDA-MB-435) greater than 50 µM and an IC50 (SF-295) greater than 50 µM. For the same molecule, the Activity (Lytechinus variegatus [2]) was 87.7%, the Activity (Lytechinus variegatus [3]) was 78.7% and the Activity (Lytechinus variegatus [4]) was 68.3%. For the same molecule, the Activity (Lytechinus variegatus [5]) was 92%, the IC50 (HCT-8) was greater than 50 µM and the Activity (Lytechinus variegatus [6]) was 76.3%. The IC50 (HL-60) was greater than 50 µM.
`CCOC(=O)CNC(=O)Cc1ccc2c(c1)OCO2` was tested, and the Activity (Lytechinus variegatus [1]) was 79.7%, the IC50 (MDA-MB-435) was greater than 50 µM and the IC50 (SF-295) was 13.5 µM. For the same molecule, the Activity (Lytechinus variegatus [2]) was 0.3%, the Activity (Lytechinus variegatus [3]) was 15.7% and the Activity (Lytechinus variegatus [4]) was 71.3%. For the same molecule, the Activity (Lytechinus variegatus [5]) was 83.7%, the IC50 (HCT-8) was 4.3 µM and the Activity (Lytechinus variegatus [6]) was 83%. For the same molecule, the IC50 (HL-60) was 18.7 µM.
Work on `CC(C)[C@H](NC(=O)Cc1ccc2c(c1)OCO2)C(N)=O` yielded an Activity (Lytechinus variegatus [1]) of 70.7%, an IC50 (MDA-MB-435) greater than 50 µM and an IC50 (SF-295) greater than 50 µM. The Activity (Lytechinus variegatus [2]) was 1%, the Activity (Lytechinus variegatus [3]) was 61.7% and the Activity (Lytechinus variegatus [4]) was 67%. It also gave an Activity (Lytechinus variegatus [5]) of 96.7%, an IC50 (HCT-8) greater than 50 µM and an Activity (Lytechinus variegatus [6]) of 88%. For the same molecule, the IC50 (HL-60) was greater than 50 µM.
`CC[C@@H](C)[C@H](NC(=O)Cc1ccc2c(c1)OCO2)C(N)=O` showed an Activity (Lytechinus variegatus [1]) of 87.7%, an IC50 (MDA-MB-435) greater than 50 µM and an IC50 (SF-295) greater than 50 µM. It also gave an Activity (Lytechinus variegatus [2]) of 84.7%, an Activity (Lytechinus variegatus [3]) of 70.3% and an Activity (Lytechinus variegatus [4]) of 62%. It also gave an Activity (Lytechinus variegatus [5]) of 94.7%, an IC50 (HCT-8) greater than 50 µM and an Activity (Lytechinus variegatus [6]) of 89.3%. It also gave an IC50 (HL-60) greater than 50 µM.
`NC(=O)[C@H](Cc1ccc(Oc2c(Cl)cccc2Cl)cc1)NC(=O)Cc1cc2c(cc1[N+](=O)[O-])OCO2` gave an Activity (Lytechinus variegatus [1]) of 85.3%, an IC50 (MDA-MB-435) of 9.9 µM and an IC50 (SF-295) greater than 50 µM. The Activity (Lytechinus variegatus [2]) was 15%, the Activity (Lytechinus variegatus [3]) was 46% and the Activity (Lytechinus variegatus [4]) was 38%. The Activity (Lytechinus variegatus [5]) was 1.7%, the IC50 (HCT-8) was 8.5 µM and the Activity (Lytechinus variegatus [6]) was 92.3%. The IC50 (HL-60) was greater than 50 µM.
Molecule `CC(C)(C)OC(=O)NCCCC[C@H](NC(=O)Cc1cc2c(cc1[N+](=O)[O-])OCO2)C(N)=O` has an Activity (Lytechinus variegatus [1]) of 88.7%, an IC50 (MDA-MB-435) of 9.2 µM and an IC50 (SF-295) of 31.6 µM. It also gave an Activity (Lytechinus variegatus [2]) of 3.7%, an Activity (Lytechinus variegatus [3]) of 66.3% and an Activity (Lytechinus variegatus [4]) of 72.3%. For the same molecule, the Activity (Lytechinus variegatus [5]) was 79.7%, the IC50 (HCT-8) was greater than 50 µM and the Activity (Lytechinus variegatus [6]) was 88.7%. It also gave an IC50 (HL-60) of 5.4 µM.
`COc1cccc2c1C(=O)c1c(O)c3c(c(O)c1C2=O)C[C@@](O)(C(=O)CO)C[C@@H]3O[C@H]1C[C@H](N)[C@H](O)[C@H](C)O1` [DOXORUBICIN] was tested, and the Activity (Lytechinus variegatus [1]) was 16.3%, the IC50 (MDA-MB-435) was 0.83 µM and the IC50 (SF-295) was 0.42 µM. The Activity (Lytechinus variegatus [2]) was 0%, the Activity (Lytechinus variegatus [3]) was 1.5% and the Activity (Lytechinus variegatus [4]) was 0%. The Activity (Lytechinus variegatus [5]) was 0.3%, the IC50 (HCT-8) was 0.03 µM and the Activity (Lytechinus variegatus [6]) was 36%.
Work on `NC(=O)[C@H](Cc1ccccc1)NC(=O)Cc1cc2c(cc1[N+](=O)[O-])OCO2` yielded an Activity (Lytechinus variegatus [1]) of 1.7%, an IC50 (MDA-MB-435) greater than 50 µM and an IC50 (SF-295) greater than 50 µM. The Activity (Lytechinus variegatus [2]) was 0%, the Activity (Lytechinus variegatus [3]) was 5.3% and the Activity (Lytechinus variegatus [4]) was 73.3%. It also gave an Activity (Lytechinus variegatus [5]) of 92%, an IC50 (HCT-8) greater than 50 µM and an Activity (Lytechinus variegatus [6]) of 86.3%. It also gave an IC50 (HL-60) greater than 50 µM.
